Reference: patent US4708962A, “Antiviral and antitumor cyclohexadienone compositions” (Harbor Branch Oceanographic Institution, Inc., priority 1985, dated 1987)
≈ marks a conversion by molar mass, not a printed value. Read-outs that look alike come from different tables or passages of the source.

Key:
[1] = Stability at room temperature; assay type: physicochemical
[2] = system: P-388 murine leukemia cells; experiment: Cytotoxicity assay, P388 mouse leukemia cells; assay type: cell-based
Method: (§1) The following assay method was utilized to illustrate the antitumor effectiveness of compounds 1-7.
(§2) L1210 And P388 MOUSE LEUKEMIA CELL; ILEOCECAL ADENO CARCINOMA HCT-8; AND LUNG CARCINOMA A549; CYTOXICITY ASSAY 24-WELL PLATE SCREENING ASSAY AND TUBE ASSAY PROTOCOL
(§3) Media--Dulbeccos with glucose and pyruvate (Biologos, Inc) with 10% horse serum, (Biologos, Inc) and 1.0 ug/ml gentamicin (Gibco).
(§4) Cells--L1210 and P-388 mouse leukemia cells (American Type Culture Collection) in media at a concentration of 5×10^4 cells/ml. Sterile 24-well culture plates (Nunc) for screening or 12×75 mm glass culture tubes (Becton-Dickinson) for tube assay. Microdispenser with 1 to 5 ul increments (Drummond Scientific Co. Broomall PA).
(§5) Finnpipette with 5 to 50 ul increments and Finnpipette with 50 to 200 ul increments.
(§6) 1. A sample of the composition to be assayed is added to each well or tube in an amount of from 200 ug/ml and 100 ug/ml for screening. For DDC of known active compounds use log concentrations from 100 ug/ml to 0.01 ug/ml for range-finding assay; when range has been determined, use five concentrations between highest and lowest active concentrations.
(§7) 2. Add 2.0 ml of 5×10^4 cell suspension in media to each well or tube. Tubes are loosely covered with parafilm.
(§8) 3. Incubate in 5% CO2 incubator 48 hours.
(§9) 4. Visually read plates with inverted microscope, comparing with solvent control. Assign activity as follows:
(§10) 1+=75-89% of control growth
(§11) 2+=50-74% of control growth
(§12) 3+=25-49% of control growth
(§13) 4+=<25% of control growth
(§14) Repeat all positive samples using tube assay.
(§15) 5. For Tube assays--Mix tube well on vortex and remove 0.5 ml aliquot and add to 9.5 ml nf diluent fluid (Isoton-Coulter) in Accuvette (Coulter) and mix well by inversion immediately before counting, taking care not to produce excessive bubbles. Count on Coulter Counter (Counter is set to count 0.5 ml of the solution, therefore counts may be converted to cell/ml in original assay tube by multiplying count by 40.
(§16) Positive control--Vinblastine or Vincristine in aqueous solution.

lung carcinoma A549 = experiment: Cytotoxicity assay, lung carcinoma A549; assay type: cell-based; settings: Homo sapiens, 48 h, summary table, read-out: Test Cells at (ID 50), A549
Method: as §1, §2, §3, §5, §6, §7, §8, §9, §10, §11, §12, §13, §14, §15, §16

[3] = system: ileocecal adenocarcinoma HCT-8; experiment: Cytotoxicity assay, ileocecal adenocarcinoma HCT-8; assay type: cell-based; settings: Homo sapiens, 48 h, summary table, read-out: Test Cells at (ID 50), HCT-8
Method: as §1, §2, §3, §5, §6, §7, §8, §9, §10, §11, §12, §13, §14, §15, §16

HSV-I = experiment: Antiviral assay: inhibition of HSV-I plaque formation (disks pushed into methyl cellulose overlay); assay type: cell-based, herpes simplex-I; settings: for 25 to 80 plaque forming units of virus cells
Method: The following assay method was utilized to illustrate the antiviral effectiveness of compound (1). (1) Remove 75 cm^2 culture flasks from incubator (these were plated the previous week). (2) Aspirate medium. (3) Wash with 10 ml PBSA or Puck's Saline. (4) Aspirate. (5) Wash a second time with 10 ml PBSA or Puck's Saline. (6) Aspirate. (7) Add 2 ml trypsin/EDTA. Incubate until cells detach (10-20 min). (8) Once detached, shake vigorously and immediately add 8 ml medium and shake again. (9) Count cells. (To 0.5 ml cell suspension add 0.1 ml trypan blue. Wait 5-10 minutes. Count 4 corner squares and middle square of 5×5 array in hemocytometer. Blue cells are dead. Total count per 10 ml in culture flask=# live cells×6×10^5). (10) Maintain cell line by adding 3×10^6 cells to another 75 cm^2 culture flask. Bring to 30 ml with fresh medium. (11) For assay, add 1×10^6 cells to each well (6 wells per culture dish). Bring each well to 2 ml with fresh medium. (12) Incubate overnight at 37° C. (1) Aspirate medium. […] (3) Incubate […] with a small amount of shaking. (4) Add 2 ml MC-4000 to each well. (5) Place disks on surface and push through (1 mg/disc, 0.5 mg/disc, 0.25 mg/disc, etc. for crude extracts). (6) Incubate 48 hr. (making sure dishes remain level). (1) Add 2 ml neutral red medium. (2) Incubate overnight. […]

cells = experiment: Zone of cytotoxicity in the antiviral disk assay; assay type: cell-based; settings: read at Day 5, disk assay
Method: The following assay method was utilized to illustrate the antiviral effectiveness of compound (1).
(8) Once detached, shake vigorously and immediately add 8 ml medium and shake again.
(9) Count cells. (To 0.5 ml cell suspension add 0.1 ml trypan blue. Wait 5-10 minutes. Count 4 corner squares and middle square of 5×5 array in hemocytometer. Blue cells are dead. Total count per 10 ml in culture
(11) For assay, add 1×10^6 cells to each well (6 wells per culture dish). Bring each well to 2 ml with fresh medium.
(5) Place disks on surface and push through (1 mg/disc, 0.5 mg/disc, 0.25 mg/disc, etc. for crude extracts).
(6) Incubate 48 hr. (making sure dishes remain level).
(1) Add 2 ml neutral red medium.

[4] = system: L-1210 murine leukemia cells; experiment: Cytotoxicity assay, L1210 mouse leukemia cells; assay type: cell-based; settings: for viability at 200 µg/mL: in vitro, at 200 micrograms per milliliter, read-out: survival, L-1210
Method: as §1, §2, §3, §4, §5, §6, §7, §8, §9, §10, §11, §12, §13, §14, §15, §16

[5] = P-388, summary table, read-out: Test Cells at (ID 50), P-388
[6] = in vitro, P-388 murine leukemia cells, read-out: estimated ID50 (dose which kills 50% of the cells), P-388

Compound	decomposition [1]	IC50 [2, 5] [µg/mL]	IC50 (lung carcinoma A549) [µg/mL]	IC50 [3] [µg/mL]	minimal effective amounts (antiviral activity) (HSV-I) [micrograms]	zone of cytotoxicity as the diameter (cells) [mm]	IC50 [2, 6] [µg/mL]	viability at 200 µg/mL [4] [%]	IC50 ([4]; L-1210 murine leukemia cells, read-out: estimated ID50, L-1210) [µg/mL]
CC1(C)C=CC(=O)C(C(Cl)CO)=C1 (stereo not drawn) [Formula VIII]	decompose at room temperature in two hours	–	–	–	–	–	–	–	–
CC1(C)C=CC(=O)C(C(Cl)CBr)=C1 (stereo not drawn) [Composition 6]	–	0.5 (≈ 1.9 µM)	5 (≈ 19 µM)	5 (≈ 19 µM)	–	–	–	–	–
CC(=O)OCC(Cl)C1=CC(C)(C)C=CC1=O (stereo not drawn) [Compound 1]	–	5 (≈ 20.6 µM)	20 (≈ 82.4 µM)	10 (≈ 41.2 µM)	50 to 100	16	37 (≈ 152 µM)	–	–
COC(C)(OC)C1=CC(C)(C)C=CC1=O [Compound 3]	–	10 (≈ 47.6 µM)	30 (≈ 143 µM)	30 (≈ 143 µM)	–	–	70 (≈ 333 µM)	17	–
CC1(C)C=CC(=O)C(C2CO2)=C1 (stereo not drawn) [Compound 5]	–	10 (≈ 60.9 µM)	1 (≈ 6.09 µM)	5 (≈ 30.4 µM)	–	–	5 (≈ 30.4 µM)	25	0.7 (≈ 4.26 µM)
C=C(OC)C1=CC(C)(C)C=CC1=O [Compound 2]	–	5 (≈ 28.1 µM)	30 (≈ 168 µM)	20 (≈ 112 µM)	–	–	–	15	–
CC(=O)C1=CC(C)(C)C=CC1=O [Compound 4]	–	5 (≈ 30.4 µM)	5 (≈ 30.4 µM)	5 (≈ 30.4 µM)	–	–	70 (≈ 426 µM)	41	–
